Results from PubChem BioAssay (NCI).
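Method: 48-hour compound exposure of cells in 96-well plates, five concentrations, linear interpolation of endpoints. Abbreviation: GI50, concentration required for 50% inhibition of growth. TGI denotes the concentration required for complete inhibition of growth.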 Where a SMILES comes first, the peptide text is derived from it. [ ]: non-standard residue; d: D form. The star is where a group is joined. Decanoyl = CCCCCCCCCC(=O)*; Leu(ol) = CC(C)C[C@H](N)CO; Iva = CC[C@](C)(N)C(=O)O; Aib = CC(C)(N)C(=O)O

Legend:
Assay in all cases: inhibition of tumour cell growth, NCI panel, 48 h
786-0 renal = system: 786-0 renal
A498 renal = system: A498 renal
A549 NSCLC = system: A549 NSCLC
ACHN renal = system: ACHN renal
BT-549 breast = system: BT-549 breast
CAKI-1 renal = system: CAKI-1 renal
CCRF-CEM leukemia = system: CCRF-CEM leukemia
COLO 205 colon = system: COLO 205 colon
DU-145 prostate = system: DU-145 prostate
EKVX NSCLC = system: EKVX NSCLC
HCC-2998 colon = system: HCC-2998 colon
HCT-116 colon = system: HCT-116 colon
HCT-15 colon = system: HCT-15 colon
HL-60(TB) leukemia = system: HL-60(TB) leukemia
HOP-62 NSCLC = system: HOP-62 NSCLC
HOP-92 NSCLC = system: HOP-92 NSCLC
HS 578T breast = system: HS 578T breast
HT29 colon = system: HT29 colon
IGROV1 ovarian = system: IGROV1 ovarian
K-562 leukemia = system: K-562 leukemia
KM12 colon = system: KM12 colon
LOX IMVI melanoma = system: LOX IMVI melanoma
M14 melanoma = system: M14 melanoma
MALME-3M melanoma = system: MALME-3M melanoma
MCF7 breast = system: MCF7 breast
MDA-MB-231 breast = system: MDA-MB-231 breast
MDA-MB-435 = system: MDA-MB-435
MOLT-4 leukemia = system: MOLT-4 leukemia
NCI-H226 lung = system: NCI-H226 lung
NCI-H460 lung = system: NCI-H460 lung
NCI-H522 lung = system: NCI-H522 lung
NCI/ADR-RES ovarian = system: NCI/ADR-RES ovarian
OVCAR-3 ovarian = system: OVCAR-3 ovarian
OVCAR-4 ovarian = system: OVCAR-4 ovarian
OVCAR-5 ovarian = system: OVCAR-5 ovarian
OVCAR-8 ovarian = system: OVCAR-8 ovarian
PC-3 prostate = system: PC-3 prostate
RPMI-8226 leukemia = system: RPMI-8226 leukemia
RXF 393 renal = system: RXF 393 renal
SF-268 CNS = system: SF-268 CNS
SF-295 CNS = system: SF-295 CNS
SF-539 CNS = system: SF-539 CNS
SK-MEL-2 melanoma = system: SK-MEL-2 melanoma
SK-MEL-28 melanoma = system: SK-MEL-28 melanoma
SK-MEL-5 melanoma = system: SK-MEL-5 melanoma
SK-OV-3 ovarian = system: SK-OV-3 ovarian
SN12C renal = system: SN12C renal
SNB-19 CNS = system: SNB-19 CNS
SNB-75 CNS = system: SNB-75 CNS
SR leukemia = system: SR leukemia
SW-620 colon = system: SW-620 colon
T-47D breast = system: T-47D breast
TK-10 renal = system: TK-10 renal
UACC-257 melanoma = system: UACC-257 melanoma
UACC-62 melanoma = system: UACC-62 melanoma
UO-31 renal = system: UO-31 renal

SMILES: CCCCCCCCCC(=O)N[C@@](C)(CC)C(=O)N1CCC[C@H]1C(=O)N[C@@H](CC(C)C)C(=O)N[C@@](C)(CC)C(=O)N[C@@H](CCC(N)=O)C(=O)N[C@H](CCC(N)=O)C(=O)NC(C)(C)C(=O)NC(C)(C)C(=O)N[C@@H](CCC(N)=O)C(=O)N[C@H](CC(C)C)C(=O)N[C@H](CO)CC(C)C (Decanoyl-[Iva]PL[Iva]Q[dQ][Aib][Aib]Q[dL][Leu(ol)])
- GI50 (786-0 renal): 2.48 µM
- TGI (786-0 renal): 6.48 µM
- GI50 (A498 renal): 2.75 µM
- TGI (A498 renal): 7.36 µM
- GI50 (A549 NSCLC): 4.93 µM
- TGI (A549 NSCLC): 27 µM
- GI50 (ACHN renal): 8.34 µM
- TGI (ACHN renal): 20.8 µM
- GI50 (BT-549 breast): 2.08 µM
- TGI (BT-549 breast): 4.11 µM
- GI50 (CAKI-1 renal): 6.6 µM
- TGI (CAKI-1 renal): 20.8 µM
- GI50 (CCRF-CEM leukemia): 2.01 µM
- TGI (CCRF-CEM leukemia): 4.49 µM
- GI50 (COLO 205 colon): 1.91 µM
- TGI (COLO 205 colon): 3.8 µM
- GI50 (DU-145 prostate): 1.96 µM
- TGI (DU-145 prostate): 3.67 µM
- GI50 (EKVX NSCLC): 2.2 µM
- TGI (EKVX NSCLC): 5.47 µM
- GI50 (HCC-2998 colon): 2.15 µM
- TGI (HCC-2998 colon): 4.58 µM
- GI50 (HCT-116 colon): 3.3 µM
- TGI (HCT-116 colon): 12.1 µM
- GI50 (HCT-15 colon): 7.72 µM
- TGI (HCT-15 colon): 22.5 µM
- GI50 (HL-60(TB) leukemia): 2.23 µM
- TGI (HL-60(TB) leukemia): 6.26 µM
- GI50 (HOP-62 NSCLC): 2.25 µM
- TGI (HOP-62 NSCLC): 5.04 µM
- GI50 (HOP-92 NSCLC): 1.34 µM
- TGI (HOP-92 NSCLC): 4.6 µM
- GI50 (HS 578T breast): 2.1 µM
- TGI (HS 578T breast): 5.5 µM
- GI50 (HT29 colon): 3.48 µM
- TGI (HT29 colon): 14.8 µM
- GI50 (IGROV1 ovarian): 4.05 µM
- TGI (IGROV1 ovarian): 14.8 µM
- GI50 (K-562 leukemia): 2.09 µM
- TGI (K-562 leukemia): 4.37 µM
- GI50 (KM12 colon): 2.03 µM
- TGI (KM12 colon): 4.37 µM
- GI50 (LOX IMVI melanoma): 1.97 µM
- TGI (LOX IMVI melanoma): 4.26 µM
- GI50 (M14 melanoma): 1.93 µM
- TGI (M14 melanoma): 3.95 µM
- GI50 (MALME-3M melanoma): 2.12 µM
- TGI (MALME-3M melanoma): 4.95 µM
- GI50 (MCF7 breast): 2.04 µM
- TGI (MCF7 breast): 4.38 µM
- GI50 (MDA-MB-231 breast): 2.04 µM
- TGI (MDA-MB-231 breast): 4.71 µM
- GI50 (MDA-MB-435): 1.86 µM
- TGI (MDA-MB-435): 3.6 µM
- GI50 (MOLT-4 leukemia): 2.09 µM
- TGI (MOLT-4 leukemia): 4.43 µM
- GI50 (NCI-H226 lung): 2.21 µM
- TGI (NCI-H226 lung): 5.2 µM
- GI50 (NCI-H460 lung): 3.53 µM
- TGI (NCI-H460 lung): 11.8 µM
- GI50 (NCI-H522 lung): 2.06 µM
- TGI (NCI-H522 lung): 5.13 µM
- GI50 (NCI/ADR-RES ovarian): 5.59 µM
- TGI (NCI/ADR-RES ovarian): 19.6 µM
- GI50 (OVCAR-3 ovarian): 7.61 µM
- TGI (OVCAR-3 ovarian): 22.2 µM
- GI50 (OVCAR-4 ovarian): 12.7 µM
- TGI (OVCAR-4 ovarian): 28.5 µM
- GI50 (OVCAR-5 ovarian): 3.38 µM
- TGI (OVCAR-5 ovarian): 12.4 µM
- GI50 (OVCAR-8 ovarian): 1.91 µM
- TGI (OVCAR-8 ovarian): 4.17 µM
- GI50 (PC-3 prostate): 1.79 µM
- TGI (PC-3 prostate): 3.51 µM
- GI50 (RPMI-8226 leukemia): 2.33 µM
- TGI (RPMI-8226 leukemia): 5.06 µM
- GI50 (RXF 393 renal): 1.81 µM
- TGI (RXF 393 renal): 3.63 µM
- GI50 (SF-268 CNS): 2.5 µM
- TGI (SF-268 CNS): 6.52 µM
- GI50 (SF-295 CNS): 1.76 µM
- TGI (SF-295 CNS): 3.42 µM
- GI50 (SF-539 CNS): 1.98 µM
- TGI (SF-539 CNS): 4.21 µM
- GI50 (SK-MEL-2 melanoma): 2.76 µM
- TGI (SK-MEL-2 melanoma): 8.36 µM
- GI50 (SK-MEL-28 melanoma): 1.77 µM
- TGI (SK-MEL-28 melanoma): 3.3 µM
- GI50 (SK-MEL-5 melanoma): 1.88 µM
- TGI (SK-MEL-5 melanoma): 3.56 µM
- GI50 (SK-OV-3 ovarian): 5.03 µM
- TGI (SK-OV-3 ovarian): 18.9 µM
- GI50 (SN12C renal): 2.29 µM
- TGI (SN12C renal): 6.15 µM
- GI50 (SNB-19 CNS): 2.08 µM
- TGI (SNB-19 CNS): 4.66 µM
- GI50 (SNB-75 CNS): 1.6 µM
- TGI (SNB-75 CNS): 4.15 µM
- GI50 (SR leukemia): 1.94 µM
- TGI (SR leukemia): 4.32 µM
- GI50 (SW-620 colon): 4.05 µM
- TGI (SW-620 colon): 15.2 µM
- GI50 (T-47D breast): 3.56 µM
- TGI (T-47D breast): 17.8 µM
- GI50 (TK-10 renal): 4.09 µM
- TGI (TK-10 renal): 16.7 µM
- GI50 (UACC-257 melanoma): 1.75 µM
- TGI (UACC-257 melanoma): 3.46 µM
- GI50 (UACC-62 melanoma): 1.99 µM
- TGI (UACC-62 melanoma): 4.91 µM
- GI50 (UO-31 renal): 3.58 µM
- TGI (UO-31 renal): 16.1 µM
